Measured values: ChEMBL document CHEMBL1909046, “DrugMatrix in vitro pharmacology data”

How the values were obtained:
[1] = target: T1, 5-hydroxytryptamine receptor 2C (Homo sapiens, UniProt P28335); assay: DRUGMATRIX: Serotonin (5-Hydroxytryptamine) 5-HT2C radioligand binding (ligand: [3H] Mesulergine); assay type: cell membranes, CHO-K1, Membrane; conditions: cho-k1; Not Active = under 50% inhibition at 10 µM
T1 sequence (P28335 whole entry): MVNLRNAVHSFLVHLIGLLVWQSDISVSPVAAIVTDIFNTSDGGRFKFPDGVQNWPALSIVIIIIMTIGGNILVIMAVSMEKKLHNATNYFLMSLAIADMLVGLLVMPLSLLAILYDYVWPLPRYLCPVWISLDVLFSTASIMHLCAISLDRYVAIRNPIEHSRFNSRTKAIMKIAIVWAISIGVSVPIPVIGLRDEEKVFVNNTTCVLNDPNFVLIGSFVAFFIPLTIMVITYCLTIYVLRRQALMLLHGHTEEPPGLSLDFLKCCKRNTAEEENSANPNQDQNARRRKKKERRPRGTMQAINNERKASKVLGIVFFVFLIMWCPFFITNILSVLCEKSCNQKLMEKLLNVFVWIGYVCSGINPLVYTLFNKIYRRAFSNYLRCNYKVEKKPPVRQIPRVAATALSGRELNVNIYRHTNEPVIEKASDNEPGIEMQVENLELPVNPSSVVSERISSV

[2] = DRUGMATRIX: ATPase, Na+/K+ enzyme inhibition (substrate: ATP); assay type: tissue-based, Sus scrofa, Heart; conditions: Not Active = under 50% inhibition at 10 µM
Cathepsin G = target: T2, Cathepsin G (Homo sapiens, UniProt P08311); assay type: tissue-based; conditions: neutrophil;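 further: inhibition of Cathepsin G enzyme activity, tested on an AMC-conjugated peptide substrate; in other assays of this panel Not Active means under 50% inhibition at 10 µM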
T2 sequence (P08311 whole entry): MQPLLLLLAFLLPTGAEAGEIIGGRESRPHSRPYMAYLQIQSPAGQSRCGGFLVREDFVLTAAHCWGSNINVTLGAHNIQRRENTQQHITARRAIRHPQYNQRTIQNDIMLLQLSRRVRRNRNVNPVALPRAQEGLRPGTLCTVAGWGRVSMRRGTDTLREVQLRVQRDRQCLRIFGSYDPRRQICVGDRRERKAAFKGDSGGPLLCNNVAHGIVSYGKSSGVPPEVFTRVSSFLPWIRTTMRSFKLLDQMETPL

Neutrophil elastase = target: T3, Neutrophil elastase (Homo sapiens, UniProt P08246); assay type: tissue-based;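 further: inhibition of neutrophil elastase enzyme activity, measured with a p-nitroanilide-linked peptide substrate; in other assays of this panel Not Active means under 50% inhibition at 10 µM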
T3 sequence (P08246 whole entry): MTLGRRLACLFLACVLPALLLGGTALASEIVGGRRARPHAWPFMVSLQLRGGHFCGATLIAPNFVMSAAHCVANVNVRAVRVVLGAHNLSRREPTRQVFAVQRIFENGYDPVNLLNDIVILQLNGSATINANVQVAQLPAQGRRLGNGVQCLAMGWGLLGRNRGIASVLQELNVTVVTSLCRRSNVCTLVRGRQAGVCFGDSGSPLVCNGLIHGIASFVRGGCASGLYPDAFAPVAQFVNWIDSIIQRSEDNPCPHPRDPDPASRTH

[3] = target: T4, Muscarinic acetylcholine receptor M2 (Homo sapiens, UniProt P08172); assay type: cell membranes, CHO-K1, Membrane; conditions: cho-k1; further: in other assays of this panel Not Active means under 50% inhibition at 10 µM
T4 sequence (P08172 whole entry): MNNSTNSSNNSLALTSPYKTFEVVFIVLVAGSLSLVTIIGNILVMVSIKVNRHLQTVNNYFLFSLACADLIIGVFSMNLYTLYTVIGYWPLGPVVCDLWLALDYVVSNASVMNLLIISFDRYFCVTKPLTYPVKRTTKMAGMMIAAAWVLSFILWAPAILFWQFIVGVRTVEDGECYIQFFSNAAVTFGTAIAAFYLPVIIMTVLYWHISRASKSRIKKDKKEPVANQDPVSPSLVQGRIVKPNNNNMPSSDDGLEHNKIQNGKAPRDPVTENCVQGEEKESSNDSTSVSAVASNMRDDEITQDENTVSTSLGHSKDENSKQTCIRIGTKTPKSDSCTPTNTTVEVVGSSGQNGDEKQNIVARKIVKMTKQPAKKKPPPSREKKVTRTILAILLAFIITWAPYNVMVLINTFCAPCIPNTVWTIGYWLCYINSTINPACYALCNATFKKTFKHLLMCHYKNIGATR

[4] = target: Tyrosine-protein kinase Lck (Homo sapiens, UniProt P06239); assay: DRUGMATRIX: Protein Tyrosine Kinase, LCK enzyme inhibition (substrate: Poly(Glu:Tyr)); assay type: cell-based, Insect cells; conditions: insect cells; Not Active = under 50% inhibition at 10 µM
[5] = DRUGMATRIX: Interleukin IL-1 radioligand binding (ligand: [125I] interleukin 1beta); assay type: cell membranes, Membrane; conditions: nih3t3; Not Active = under 50% inhibition at 10 µM
[6] = DRUGMATRIX: Purinergic P2X radioligand binding (ligand: [3H] alpha, beta-Methylene-ATP); assay type: cell membranes, Oryctolagus cuniculus, New Zealand albino, Urinary bladder, Membrane; conditions: Not Active = under 50% inhibition at 10 µM
Substance-P receptor = Substance-P receptor (Homo sapiens, UniProt P25103); assay type: cell membranes, CHO, Membrane; conditions: cho; further: in other assays of this panel Not Active means under 50% inhibition at 10 µM
Melanocortin receptor 5 = Melanocortin receptor 5 (Homo sapiens, UniProt P33032); assay type: cell membranes, HEK293, Membrane; conditions: hek293; further: in other assays of this panel Not Active means under 50% inhibition at 10 µM
Adenosine receptor A1 = target: T5, Adenosine receptor A1 (Homo sapiens, UniProt P30542); assay type: cell membranes, CHO, Membrane; conditions: cho
T5 sequence (P30542 whole entry): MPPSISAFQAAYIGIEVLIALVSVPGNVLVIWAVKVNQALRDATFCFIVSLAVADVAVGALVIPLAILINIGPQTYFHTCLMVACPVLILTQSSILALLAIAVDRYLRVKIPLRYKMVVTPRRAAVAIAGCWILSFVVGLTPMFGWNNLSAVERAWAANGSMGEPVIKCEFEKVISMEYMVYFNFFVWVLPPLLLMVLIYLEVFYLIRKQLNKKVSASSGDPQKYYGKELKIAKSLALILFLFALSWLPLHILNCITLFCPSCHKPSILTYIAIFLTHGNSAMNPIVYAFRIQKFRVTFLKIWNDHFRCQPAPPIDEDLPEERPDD

Acetylcholinesterase = Acetylcholinesterase (Homo sapiens, UniProt P22303); assay: DRUGMATRIX: Acetylcholinesterase enzyme inhibition (substrate: acetylthiocholine); assay type: cell-based, HEK293; conditions: hek293; Not Active = under 50% inhibition at 10 µM
Glycine receptor = Glycine receptor (Rattus norvegicus, UniProt P22771+P24524+P07727+P20781); assay type: cell membranes, Wistar, Spinal cord, Membrane; further: in other assays of this panel Not Active means under 50% inhibition at 10 µM

Chain of Acetylcholinesterase (P22303 whole entry): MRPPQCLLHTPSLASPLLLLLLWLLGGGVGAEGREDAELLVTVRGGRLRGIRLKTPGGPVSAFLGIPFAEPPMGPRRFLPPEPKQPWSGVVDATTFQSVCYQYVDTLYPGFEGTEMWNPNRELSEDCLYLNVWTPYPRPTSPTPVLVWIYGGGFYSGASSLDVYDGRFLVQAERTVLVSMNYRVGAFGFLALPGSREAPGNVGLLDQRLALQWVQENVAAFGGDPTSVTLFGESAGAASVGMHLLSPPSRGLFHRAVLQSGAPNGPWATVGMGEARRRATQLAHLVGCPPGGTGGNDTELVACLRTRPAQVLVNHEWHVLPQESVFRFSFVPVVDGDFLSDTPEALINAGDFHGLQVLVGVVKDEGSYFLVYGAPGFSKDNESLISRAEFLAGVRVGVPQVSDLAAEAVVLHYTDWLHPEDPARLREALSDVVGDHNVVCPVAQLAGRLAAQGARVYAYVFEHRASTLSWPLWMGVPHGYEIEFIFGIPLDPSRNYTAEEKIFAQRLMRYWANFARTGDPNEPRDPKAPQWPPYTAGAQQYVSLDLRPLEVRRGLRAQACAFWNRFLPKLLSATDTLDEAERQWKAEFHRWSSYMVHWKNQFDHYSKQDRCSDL
Chain of Melanocortin receptor 5 (P33032 whole entry): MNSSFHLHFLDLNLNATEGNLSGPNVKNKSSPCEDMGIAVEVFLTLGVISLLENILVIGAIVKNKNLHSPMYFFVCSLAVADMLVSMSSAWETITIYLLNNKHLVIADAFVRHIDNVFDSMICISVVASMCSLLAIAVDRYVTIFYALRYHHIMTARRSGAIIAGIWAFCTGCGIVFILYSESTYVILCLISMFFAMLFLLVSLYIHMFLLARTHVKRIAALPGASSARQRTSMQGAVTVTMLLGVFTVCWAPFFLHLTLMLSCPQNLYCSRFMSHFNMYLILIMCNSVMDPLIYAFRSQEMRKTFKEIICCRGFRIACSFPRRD
Chain of Substance-P receptor (P25103 whole entry): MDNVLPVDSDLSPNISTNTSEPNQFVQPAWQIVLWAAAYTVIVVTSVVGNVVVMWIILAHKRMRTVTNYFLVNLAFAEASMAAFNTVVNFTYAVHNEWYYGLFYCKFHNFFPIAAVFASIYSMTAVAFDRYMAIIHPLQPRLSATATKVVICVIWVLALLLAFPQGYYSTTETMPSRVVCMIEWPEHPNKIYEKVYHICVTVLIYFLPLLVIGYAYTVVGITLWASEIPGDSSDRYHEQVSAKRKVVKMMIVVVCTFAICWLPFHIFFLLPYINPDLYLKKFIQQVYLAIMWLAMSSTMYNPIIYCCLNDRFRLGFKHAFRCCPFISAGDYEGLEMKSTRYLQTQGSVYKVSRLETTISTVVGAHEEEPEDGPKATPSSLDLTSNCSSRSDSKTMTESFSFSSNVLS
Chain of Tyrosine-protein kinase Lck (P06239 whole entry): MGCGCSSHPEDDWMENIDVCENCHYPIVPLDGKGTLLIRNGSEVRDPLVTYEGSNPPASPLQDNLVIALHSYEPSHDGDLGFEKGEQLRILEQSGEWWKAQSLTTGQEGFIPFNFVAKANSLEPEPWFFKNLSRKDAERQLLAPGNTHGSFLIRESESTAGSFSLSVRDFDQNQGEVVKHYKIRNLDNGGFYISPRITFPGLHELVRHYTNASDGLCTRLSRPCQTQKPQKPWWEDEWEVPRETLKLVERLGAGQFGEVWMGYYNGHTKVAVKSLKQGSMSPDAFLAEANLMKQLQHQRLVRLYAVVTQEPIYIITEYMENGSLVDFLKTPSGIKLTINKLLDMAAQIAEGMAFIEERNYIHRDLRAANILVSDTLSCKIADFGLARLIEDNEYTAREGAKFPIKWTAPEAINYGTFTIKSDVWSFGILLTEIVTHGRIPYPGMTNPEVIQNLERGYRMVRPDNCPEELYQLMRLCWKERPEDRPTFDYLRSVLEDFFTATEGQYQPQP

Row | Compound | IC50 [1] | IC50 [2] | Ki [2] | IC50 (Cathepsin G) | IC50 (Neutrophil elastase) | IC50 [3] | IC50 [4] | IC50 [5] | Ki [5] | IC50 [6] | Ki [6] | IC50 (Substance-P receptor) | IC50 (Melanocortin receptor 5) | IC50 (Adenosine receptor A1) | IC50 (Acetylcholinesterase) | IC50 (Glycine receptor) | also measured
1 | CN[C@H](CC(C)C)C(=O)N[C@H]1C(=O)N[C@@H](CC(N)=O)C(=O)N[C@H]2C(=O)N[C@H]3C(=O)N[C@H](C(=O)N[C@H](C(=O)O)c4cc(O)cc(O)c4-c4cc3ccc4O)[C@H](O)c3ccc(c(Cl)c3)Oc3cc2cc(c3O[C@@H]2O[C@H](CO)[C@@H](O)[C@H](O)[C@H]2O[C@H]2C[C@](C)(N)[C@H](O)[C@H](C)O2)Oc2ccc(cc2Cl)[C@H]1O [VANCOMYCIN] | Not Active | Not Active | Not Active | Not Active | Not Active | Not Active | Not Active | Not Active | Not Active | Not Active | Not Active | Not Active | Not Active | Not Active | Not Active | Not Active | –
2 | COc1ccc(C(CN(C)C)C2(O)CCCCC2)cc1 (centres undefined) [VENLAFAXINE] | Not Active | Not Active | Not Active | Not Active | Not Active | Not Active | Not Active | Not Active | Not Active | Not Active | Not Active | Not Active | Not Active | Not Active | Not Active | Not Active | –
3 | COC(=O)[C@@H]1[C@H]2C[C@H]3c4[nH]c5ccccc5c4CCN3C[C@@H]2CC[C@@H]1O [YOHIMBINE] | Not Active | Not Active | Not Active | Not Active | Not Active | Not Active | Not Active | Not Active | Not Active | Not Active | Not Active | Not Active | Not Active | Not Active | Not Active | Not Active | –
4 | IVERMECTIN | Not Active | Not Active | Not Active | Not Active | Not Active | Not Active | Not Active | Not Active | Not Active | Not Active | Not Active | Not Active | Not Active | Not Active | Not Active | – | Ki [1]: Not Active; Ki (Cathepsin G): Not Active; Ki (Neutrophil elastase): Not Active; Ki [3]: Not Active; Ki [4]: Not Active; Ki (Substance-P receptor): Not Active; Ki (Melanocortin receptor 5): Not Active; Ki (Adenosine receptor A1): Not Active; Ki (Acetylcholinesterase): Not Active; IC50 (Glycine receptor; read-out: IC50): 375 nM; Ki (Glycine receptor; read-out: Ki): 212 nM
